Laboratory results reported in the NIST ThermoML archive (doi:10.1021/je200309v).
± gives the expanded uncertainty stated by the source.

Assay: mn = molality of the nth substance listed, in mol/kg
Details: 101 kPa, Liquid, Alternating current cell with electrodes

CC[N+](CC)(CC)CC.F[B-](F)(F)F [tetraethylammonium tetrafluoroborate] + CC1COC(=O)O1
electrical conductivity (253.15 K, m1 = 0.1593): 0.1317 ± 0.0013 S/m
electrical conductivity (253.15 K, m1 = 0.461): 0.278 ± 0.0028 S/m
electrical conductivity (253.15 K, m1 = 0.5658): 0.3133 ± 0.0031 S/m
electrical conductivity (253.15 K, m1 = 0.7282): 0.3523 ± 0.0035 S/m
electrical conductivity (253.15 K, m1 = 0.8234): 0.366 ± 0.0037 S/m
electrical conductivity (253.15 K, m1 = 0.9666): 0.3749 ± 0.0037 S/m
electrical conductivity (253.15 K, m1 = 1.186): 0.359 ± 0.0036 S/m
electrical conductivity (273.15 K, m1 = 0.1593): 0.239 ± 0.0024 S/m
electrical conductivity (273.15 K, m1 = 0.461): 0.519 ± 0.0052 S/m
electrical conductivity (273.15 K, m1 = 0.5658): 0.591 ± 0.0059 S/m
electrical conductivity (273.15 K, m1 = 0.7282): 0.676 ± 0.0068 S/m
electrical conductivity (273.15 K, m1 = 0.8234): 0.712 ± 0.0071 S/m
electrical conductivity (273.15 K, m1 = 0.9666): 0.745 ± 0.0075 S/m
electrical conductivity (273.15 K, m1 = 1.186): 0.75 ± 0.0075 S/m
electrical conductivity (273.15 K, m1 = 1.425): 0.689 ± 0.007 S/m
electrical conductivity (293.15 K, m1 = 0.1593): 0.364 ± 0.0036 S/m
electrical conductivity (293.15 K, m1 = 0.461): 0.812 ± 0.0081 S/m
electrical conductivity (293.15 K, m1 = 0.5658): 0.929 ± 0.0093 S/m
electrical conductivity (293.15 K, m1 = 0.7282): 1.07 ± 0.011 S/m
electrical conductivity (293.15 K, m1 = 0.8234): 1.128 ± 0.011 S/m
electrical conductivity (293.15 K, m1 = 0.9666): 1.19 ± 0.012 S/m
electrical conductivity (293.15 K, m1 = 1.186): 1.201 ± 0.012 S/m
electrical conductivity (293.15 K, m1 = 1.425): 1.116 ± 0.011 S/m
electrical conductivity (313.15 K, m1 = 0.1593): 0.516 ± 0.0052 S/m
electrical conductivity (313.15 K, m1 = 0.461): 1.16 ± 0.012 S/m
electrical conductivity (313.15 K, m1 = 0.5658): 1.333 ± 0.013 S/m
electrical conductivity (313.15 K, m1 = 0.7282): 1.543 ± 0.015 S/m
electrical conductivity (313.15 K, m1 = 0.8234): 1.635 ± 0.016 S/m
electrical conductivity (313.15 K, m1 = 0.9666): 1.73 ± 0.017 S/m
electrical conductivity (313.15 K, m1 = 1.186): 1.77 ± 0.018 S/m
electrical conductivity (313.15 K, m1 = 1.425): 1.69 ± 0.017 S/m
electrical conductivity (333.15 K, m1 = 0.1593): 0.678 ± 0.0068 S/m
electrical conductivity (333.15 K, m1 = 0.461): 1.535 ± 0.015 S/m
electrical conductivity (333.15 K, m1 = 0.5658): 1.76 ± 0.018 S/m
electrical conductivity (333.15 K, m1 = 0.7282): 2.049 ± 0.02 S/m
electrical conductivity (333.15 K, m1 = 0.8234): 2.18 ± 0.022 S/m
electrical conductivity (333.15 K, m1 = 0.9666): 2.314 ± 0.023 S/m
electrical conductivity (333.15 K, m1 = 1.186): 2.4 ± 0.024 S/m
electrical conductivity (333.15 K, m1 = 1.425): 2.307 ± 0.023 S/m
